{"source": "patent US20200181101A1", "about": "“BENZAMIDE INHIBITORS OF BACTERIAL LIPOPROTEIN SIGNAL PEPTIDASE” (The Scripps Research Institute, priority 2017, published 2020)", "key": {"E. coli YX23 [1]": {"test_system": "E. coli YX23", "assay": "Bacteria growth assay, Lsp-inhibition resistant mutant YX23", "assay_type": "cell-based", "set-up": "dose or concentration left out as unconfirmed", "settings": "OD600 at 24 h", "procedure": "(§1) Effect of compounds on bacterial growth was measured using the method described previously with slight modifications^[1]. Colony suspension method was used to prepare bacteria suspension using McFarland Standard 0.5 to adjust the turbidity. Cells were introduced to two-fold serial dilutions of compound in a final volume of 105 μL with 5% DMSO. Mueller-Hinton broth (MH) or LB broth was used for E. coli ATCC25922 or E. coli DW37 and YX23, respectively. Plates were incubated at 37° C., and the OD600 was measured using a PerkinElmer EnVision plate reader after gentle shaking. Mutant E. coli (DW37 and YX23) were previously described.^[2] Globomycin was used as a positive control and the concentration-response curves of globomycin on bacteria growth (E. coli ATCC25922) is shown below (error bar: SD)."}, "E. coli (ATCC25922)": {"test_system": "E. coli (ATCC25922)", "assay": "Bacteria growth assay, E. coli ATCC25922", "assay_type": "cell-based", "procedure": "as §1"}, "Lsp from E. coli": {"target": "T1, Lsp from E. coli (Escherichia coli, UniProt P00804)", "T1 construct": "The full-length Lsp clone from E. coli (residues 1-164); His6 with enterokinase cleavage site (pET19b) (N); made in house; host or cells: E. coli Lemo21 (DE3), pET19b vector", "T1 sequence (P00804 whole entry, the tested form may be a part)": "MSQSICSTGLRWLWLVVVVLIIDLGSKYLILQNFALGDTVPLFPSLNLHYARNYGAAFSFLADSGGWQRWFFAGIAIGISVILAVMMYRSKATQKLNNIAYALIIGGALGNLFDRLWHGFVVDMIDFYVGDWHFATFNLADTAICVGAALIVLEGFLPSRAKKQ", "assay": "Lsp FRET activity assay, IC50 determination", "assay_type": "biochemical", "settings": "for IC50: read-out: IC50", "procedure": "[…] […] 50 μM Lsp FRET substrate was subsequently added and the rate of substrate hydrolysis was measured by increase in fluorescence (excitation 355 nm, emission 495 nm) in 96-well plates on a PerkinElmer EnVision plate reader or Tecan Safire 2 microplate reader. Michaelis-Menten constants and […] were determined using GraphPad Prism software (GraphPad, Inc.)."}, "E. coli DW37": {"test_system": "E. coli DW37", "assay": "Bacteria growth assay, isogenic parent strain DW37", "assay_type": "cell-based", "set-up": "dose or concentration left out as unconfirmed", "settings": "OD600 at 10 h", "procedure": "as §1"}, "E. coli YX23 [2]": {"test_system": "E. coli YX23", "settings": "literature [14]; cited from earlier work"}}, "note": "Entries after “also recorded” stand apart in the source; their conditions may differ. Where two headings read alike, the source gives them in different places."}
{"smiles": "CCC(CC)c1nnc(NC(=O)c2cc(OC)c(OC3CCCC3)cc2[N+](=O)[O-])s1", "note": "[1j, 4-(cyclopentyloxy)-5-methoxy-2-nitro-N-(5-(pentan-3-yl)-1,3,4-thiadiazol-2-yl)benzamide]", "values": [{"measurement": "growth of YX23", "setting": "E. coli YX23 [1]", "result": "resistant; also recorded: did not inhibit the growth"}, {"measurement": "bacterial growth, in words", "setting": "E. coli (ATCC25922); cultures of E. coli", "result": "inhibits bacterial growth"}, {"measurement": "effect on cleaved substrate fluorescence", "setting": "Lsp from E. coli", "result": "no effect"}, {"measurement": "Hill constant", "setting": "Lsp from E. coli; [S]=50 μM, [Lsp]=100 nM", "result": "approximately 1"}, {"measurement": "IC50", "setting": "Lsp from E. coli", "result": 0.099, "unit": "µM"}, {"measurement": "growth of DW37", "setting": "E. coli DW37", "result": "inhibited the growth"}]}
{"smiles": "CCCCCCC1OC(=O)CNC(=O)C(C(C)O)NC(=O)C(CO)NC(=O)C(C(C)CC)NC(=O)C(CC(C)C)N(C)C(=O)C1C", "note": "(stereo not shown) [Globomycin, globomycin]", "values": [{"measurement": "resistance of YX23", "setting": "E. coli YX23 [2]", "result": "resistant"}]}
{"smiles": "COc1cc(C(=O)Nc2nnc(C3CCCCC3)s2)c([N+](=O)[O-])cc1OC", "note": "[1c, N-(5-cyclohexyl-1,3,4-thiadiazol-2-yl)-4,5-dimethoxy-2-nitrobenzamide]", "values": [{"measurement": "bacterial growth, in words", "setting": "E. coli (ATCC25922); in combination with PMBN 8 mg/L", "result": "did not inhibit the bacterial growth"}, {"measurement": "potency against Lsp, in words (SAR)", "setting": "Lsp from E. coli", "result": "ablated the potency"}, {"measurement": "IC50", "setting": "Lsp from E. coli; FRET-based assay, [Lsp] = 400 nM, mean (± SD)", "result": "> 400", "unit": "µM"}]}
{"smiles": "CCCC1OC(=O)C(C)CC(C)CCCCC(=O)CCCC(CC)/C=C/C=C(\\COC)CCC(O)C(O)CC(O)CNC1=O", "note": "(stereo not shown) [myxovirescin]", "values": [{"measurement": "resistance of YX23", "setting": "E. coli YX23 [2]", "result": "resistant"}]}
{"smiles": "CCCCOc1cc([N+](=O)[O-])c(C(=O)Nc2nnc(C(CC)CC)s2)cc1OC", "note": "[1g, 4-butoxy-5-methoxy-2-nitro-N-(5-(pentan-3-yl)-1,3,4-thiadiazol-2-yl)benzamide]", "values": [{"measurement": "IC50", "setting": "Lsp from E. coli; FRET-based assay, [Lsp] = 100 nM, mean (± SD)", "result": 0.54, "unit": "µM"}]}
{"smiles": "CCC(CC)c1nnc(NC(=O)c2ccc(F)cc2[N+](=O)[O-])s1", "note": "[Sk054-91-3]", "values": [{"measurement": "IC50", "setting": "Lsp from E. coli; Table 4", "result": 7.2, "unit": "µM"}]}
{"smiles": "CCC(C)c1nnc(NC(=O)c2cc(OC)c(OC)cc2[N+](=O)[O-])s1", "note": "(stereo not shown) [Sk061-69-2]", "values": [{"measurement": "IC50", "setting": "Lsp from E. coli; Table 2, variation of R3", "result": 8.7, "unit": "µM"}]}
{"smiles": "CCC(CC)c1nnc(NC(=O)c2cc(Cl)c(Oc3ccc(N)cc3)cc2[N+](=O)[O-])s1", "note": "[Sk061-32]", "values": [{"measurement": "IC50", "setting": "Lsp from E. coli; Table 5, E = 100 nM", "result": "~4", "unit": "µM"}]}
{"smiles": "O=S(=O)(N[C@H](CO)C(C(F)(F)F)C(F)(F)F)c1ccc(Cl)s1", "note": "[begacestat, reference compound]", "values": [{"measurement": "inhibition of E. coli Lsp by known aspartic acid protease inhibitors", "setting": "Lsp from E. coli", "result": "no known aspartic acid protease inhibitors"}]}
